Patent US6465660B1, “Isoindoloindolone compounds” (Les Laboratoires Servier, priority 2001, dated 2002)

Biological target: T1, MT3 sites (Mesocricetus auratus, UniProt A0ABM2YAB8)
T1 construct: carried out on hamster brain membranes using 2-[^125I] iodomelatonin as radioligand; from tissue; host or cells: hamster brain membranes
T1 sequence (A0ABM2YAB8 1-231): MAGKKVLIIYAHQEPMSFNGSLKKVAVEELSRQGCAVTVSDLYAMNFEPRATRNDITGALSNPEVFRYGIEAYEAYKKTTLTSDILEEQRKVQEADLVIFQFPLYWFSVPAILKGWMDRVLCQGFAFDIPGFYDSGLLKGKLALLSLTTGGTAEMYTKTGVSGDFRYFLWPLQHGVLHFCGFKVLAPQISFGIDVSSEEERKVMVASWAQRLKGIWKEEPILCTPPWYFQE
Assay: Study of binding to melatonin MT3 binding sites
Details: hamster brain membranes, 2-[125I] iodomelatonin radioligand, 30 minutes, 4° C.
Description: Binding to MT3 sites is characterised by remarkably rapid association and dissociation kinetics and by tissue localisation (brain).
The experiments of binding to MT3 sites are carried out on hamster brain membranes using 2-[^125I] iodomelatonin as radioligand in accordance with the protocol described by P. Paul et al. (J. Pharmacol. Exp. Ther. 1999 290, 334). The membranes are incubated for 30 minutes with 2-[^125I] iodomelatonin at a temperature of 4° C. and at different concentrations of the compounds to be tested. Following incubation, the membranes are rapidly filtered and then washed with cold buffer using a filtration system. The radioactivity retained is measured using a scintillation counter.

Structure (SMILES): COc1ccc2[nH]cc(CCNC(C)=O)c2c1 [melatonin, N-acetyl-5-methoxytryptamine]
- IC50: 45 nM
